Tests used:
Format in all cases: cell-based
SKOV3-TR [1] = assay: Crystal violet staining, cell survival rate and cell count, resistant line; details: 3 days; for optical density at 570 nm (crystal violet), anticancer drug alone: 4 μM paclitaxel or 0.9 μM doxetaxel, compared to None or DMSO-treated groups; for anticancer-enhancing effect of doxetaxel, optical density at 570 nm (crystal violet) / anticancer-enhancing effect of paclitaxel, optical density at 570 nm (crystal violet): S-form 0.5 μM or 2 μM pretreated 4 hours; for anticancer-enhancing effect of doxetaxel, optical density at 570 nm (crystal violet): then 0.9 μM doxetaxel, compared to doxetaxel+ethanol group; for anticancer-enhancing effect of paclitaxel, optical density at 570 nm (crystal violet): then 4 μM paclitaxel, compared to paclitaxel+ethanol group
Experimental: (§1) The two cancer cell lines growing on a 12-well plate were pretreated with 102 S-forms at a low concentration (0.5 μM) and a high concentration (2 μM) for 4 hours, and the SKOV3-TR cell line was then treated with 4 μM paclitaxel, and the SKOV3 cell line was treated with 0.05 μM paclitaxel. For the morphological analysis of the cells, the cells treated with None (a group that was treated with nothing), DMSO (a paclitaxel solvent), ethanol (EtOH) (an S-form solvent), DMSO+EtOH, paclitaxel, paclitaxel+ethanol (Pacli+EtOH), and 102 S-forms were analyzed after 1, 2, and 3 days, and images were captured. For cellular metabolism analysis, WST-1 analyses were performed after 3 days of the combined treatment with paclitaxel and S-forms. The cell survival rates were analyzed on the same experimental groups using a crystal violet staining method.
(§2) The two cell lines growing on a 12-well plate were pretreated with an S-form at a low concentration (0.5 μM) and a high concentration (2 μM) for 4 hours, and the SKOV3-TR cell line was then treated with 0.9 μM doxetaxel, and the SKOV3 cell line was treated with 0.5 μM doxetaxel. For the morphological analysis of the cells, the cells treated with None (a group that was treated with nothing), DMSO (a doxetaxel solvent), ethanol (EtOH) (an S-form solvent), DMSO+EtOH, doxetaxel, doxetaxel+ethanol (Doxetaxel+EtOH), and S-forms were analyzed after 1, 2, and 3 days, and images were captured. For cellular metabolism analysis, WST-1 analyses were performed after 3 days of the combined treatment with doxetaxel and S-forms. The cell survival rates were analyzed on the same experimental groups using a crystal violet staining method.
Based on the crystal violet staining in which the cell survival rates and the cell counts were analyzed, a decrease in cell counts in SKOV3-TR and SKOV3 by treatment with paclitaxel was induced through a decrease in cell survival rate. […] The crystal violet staining results of SKOV3-TR by treatment with paclitaxel are shown in FIG. 11, and the crystal violet staining results of SKOV3 are shown in FIG. 12. The crystal violet staining results of SKOV3-TR by treatment with doxetaxel are shown in FIG. 25, and the crystal violet staining results of SKOV3 are shown in FIG. 26.
The optical densities at 570 nm were reduced with the decreasing cell counts in the paclitaxel-treated groups due to the phenomena such as the induction of cell death and the inhibition of cell growth in SKOV3-TR and SKOV3, compared to the None or DMSO-treated groups. […] Also, it can be seen that the dose-response relationship was satisfied because a decrease in cell survival rate by paclitaxel in SKOV3-TR was further promoted at a high concentration (2 μM) of the S-forms as compared to a low concentration (0.5 μM) of the S-forms. For the purpose of analysis, images of the 102 experimental groups after the cell lines were stained with crystal violet were captured after 3 days of the treatment. The staining degree was determined by ELISA by measuring the optical densities at 570 nm through dye elution as in the WST-1 analysis. During the ELISA analysis, the baseline was applied to the optical density of the paclitaxel+ethanol (Pacli+EtOH)-treated group as the control group. The optical density results of SKOV3-TR by treatment with the 102 S-forms and the optical density results of SKOV3 by treatment with the 102 S-forms are shown in FIGS. 13 to 20.
The optical densities at 570 nm were reduced with the decreasing cell counts in the doxetaxel-treated groups due to the phenomena such as the induction of cell death and the inhibition of cell growth in SKOV3-TR and SKOV3, compared to the None or DMSO-treated groups. […] Also, it can be seen that the dose-response relationship was satisfied because a decrease in cell survival rate by doxetaxel in SKOV3-TR was further promoted at a high concentration (2 μM) of the S-forms as compared to a low concentration (0.5 μM) of the S-forms. […]

SKOV3 [2] = assay: Crystal violet staining, cell survival rate and cell count, parental line; details: 0.05 μM paclitaxel or 0.5 μM doxetaxel, 3 days, compared to None or DMSO-treated groups
Experimental: as §1, with “For cellular metabolism analysis, WST-1 analyses were performed after 3 days of the combined treatment with paclitaxel and S-forms.” left out
as §2, with “For cellular metabolism analysis, WST-1 analyses were performed after 3 days of the combined treatment with doxetaxel and S-forms. The cell survival rates were analyzed on the same experimental groups using a crystal violet staining method.” left out

SKOV3 [3] = assay: WST-1 analysis of cellular metabolism, parental line; details: 0.05 μM paclitaxel or 0.5 μM doxetaxel, 3 days, compared to None or DMSO-treated groups
Experimental: (§3) A cell experiment was performed on an epithelial ovarian cancer cell line SKOV3 and SKOV3-TR which is derived therefrom and produced as a resistant cancer cell line to having resistance to the anticancer drug paclitaxel.
as §1, with “For cellular metabolism analysis, WST-1 analyses were performed after 3 days of the combined treatment with paclitaxel and S-forms.” left out
(§4) The two cell lines growing on a 12-well plate were pretreated with an S-form at a low concentration (0.5 μM) and a high concentration (2 μM) for 4 hours, and the SKOV3-TR cell line was then treated with 0.9 μM doxetaxel, and the SKOV3 cell line was treated with 0.5 μM doxetaxel. […] The cell survival rates were analyzed on the same experimental groups using a crystal violet staining method. […]

SKOV3-TR [4] = assay: WST-1 analysis of cellular metabolism, resistant line; details: 4 μM paclitaxel or 0.9 μM doxetaxel, 3 days, compared to None or DMSO-treated groups
Experimental: as §3
as §1, with “For cellular metabolism analysis, WST-1 analyses were performed after 3 days of the combined treatment with paclitaxel and S-forms.” left out
as §4

SMILES | optical density at 570 nm (crystal violet), anticancer drug alone (SKOV3-TR [1]) | optical density at 570 nm (crystal violet), anticancer drug alone (SKOV3 [2]) | optical density at 450 nm (WST-1), anticancer drug alone (SKOV3 [3]) | optical density at 450 nm (WST-1), anticancer drug alone (SKOV3-TR [4]) | anticancer-enhancing effect of doxetaxel, optical density at 570 nm (crystal violet) (SKOV3-TR [1]) | anticancer-enhancing effect of paclitaxel, optical density at 570 nm (crystal violet) (SKOV3-TR [1])
CC(=O)O[C@@]12CO[C@@H]1C[C@H](O)[C@@]1(C)C(=O)[C@H](O)C3=C(C)[C@@H](OC(=O)[C@H](O)[C@@H](NC(=O)OC(C)(C)C)c4ccccc4)C[C@@](O)([C@@H](OC(=O)c4ccccc4)[C@H]21)C3(C)C [doxetaxel] | reduced | reduced | reduced | reduced | – | –
CC(=O)O[C@H]1C(=O)[C@@]2(C)[C@H]([C@H](OC(=O)c3ccccc3)[C@]3(O)C[C@H](OC(=O)[C@H](O)[C@@H](NC(=O)c4ccccc4)c4ccccc4)C(C)=C1C3(C)C)[C@]1(OC(C)=O)CO[C@@H]1C[C@@H]2O [paclitaxel] | reduced | reduced | reduced | reduced | – | –
CCc1sc2ccccc2c1CN1CCN2C(=O)C(C3CCCCC3)NC(=O)C2C1 (stereo not drawn) [S105] | – | – | – | – | exhibited the anticancer-enhancing effect | exhibited the anticancer-enhancing effect
CCc1sc2ccccc2c1CN1CCN2C(=O)CNC(=O)C2C1 (stereo not drawn) [S101, 2-((2-ethylbenzothiophene-3-yl)methyl)hexahydro-2H-pyrazino[1,2-a]pyrazine-6,9-dione] | – | – | – | – | exhibited the anticancer-enhancing effect | exhibited the anticancer-enhancing effect

From patent publication US20230019094A1, “NOVEL COMPOUND AND PHARMACEUTICAL COMPOSITION FOR PREVENTION OR TREATMENT OF CANCER COMPRISING SAME” (HOLOSMEDIC, priority 2019, published 2023)
